For the assay, the target named is T1, human leucocyte elastase (HLE) (Homo sapiens, UniProt P08246).
T1 sequence (P08246 30-267): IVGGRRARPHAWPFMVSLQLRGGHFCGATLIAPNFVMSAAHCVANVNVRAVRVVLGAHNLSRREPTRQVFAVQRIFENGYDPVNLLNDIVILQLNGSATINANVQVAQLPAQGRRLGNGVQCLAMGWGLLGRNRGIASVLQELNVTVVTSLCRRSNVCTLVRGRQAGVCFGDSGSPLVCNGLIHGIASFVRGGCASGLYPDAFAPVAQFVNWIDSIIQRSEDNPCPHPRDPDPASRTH
Briefly: Anti-elastasic activity ex vivo on frozen sections of human gums (elastic fibres remaining, morphometric quantification by image analysis). Type of assay: biochemical. Conditions: HLE + PMSF, HLE 10 μm/ml, two hours. As to the method: The purpose of this study is therefore to study the anti-elastasic activity of an extract as defined above, alone or in combination with ceramides. This activity is evaluated on sections of human gums.
The ceramides used, of vegetable origin, are obtained according to a process as described in Patent FR 2676936 incorporated by way of reference, a process which comprises exctraction from wheat, using a polar extraction solvent followed by recrystallization from an organic solvent. They are essentially composed of glucosylceramides and ceramides.
For this purpose, the elastic fibre network is subjected to human leucocyte elastase (HLE), with or without an anti-elastasic product. The elastic fibres remaining after enzymatic action are stained with (+) catechin.
Frozen sections of 8 μm are carried out from 5 samples obtained from biopsies of normal buccal mucosa, taken during dental extractions.
In a first stage, the concentration in human leucocyte elastase required for the destruction of elastic fibres is determined: leucocyte elastase is applied to the skin sections for two hours at ambient temperature and in a humid atmosphere; after fixing in acetone and dehydration in ethanol at […], the remaining elastic fibres are stained with (+) catechin. Total destruction of the elastic fibres is obtained in the presence of 10 μm/ml of human leucocyte elastase.
The anti-elastasic activity of the products is compared with that of (PMSF), a powerful elastase inhibitor.

As for `O=S(=O)(F)Cc1ccccc1` [PMSF], the “% of elastic fibres remaining after treatment with human leucocyte elastase” value (“% of elastic fibres remaining” below) (lower corium dermis) turned out to be 70%, the “% of elastic fibres remaining” value (medium corium dermis) is recorded as 55% and the “% of elastic fibres remaining” value (upper corium dermis) amounted to 25%.

Values taken from patent US6818208B2, “Use of a flavonoid extract of ginkgo biloba substantially devoid of terpenes, in the dentibuccal field, and composition containing such extract” (Societe de Conseils de Recherches et d'Applications …, priority 1996, dated 2004).
